From patent US4937236A, “Anxiolytic N-substituted benzamides” (priority 1987, dated 1990)
Where a name gives a salt, the structure may show the parent alone.

How the values were obtained:
[1] = target: T1, 5HT3 receptors located in vagal afferent fibres (Rattus norvegicus, UniProt P35563); assay: Inhibition of the Bezold-Jarisch reflex in the anaesthetized rat; assay type: in vivo; conditions: iv, read-out: BEZOLD-JARISCH REFLEX IN THE RAT (ID50; μg/kg i.v.)
T1 construct: 5HT3 receptors located in vagal afferent fibres; from tissue; host or cells: vagal afferent fibres of the anaesthetized rat (in vivo)
T1 sequence (P35563 24-483): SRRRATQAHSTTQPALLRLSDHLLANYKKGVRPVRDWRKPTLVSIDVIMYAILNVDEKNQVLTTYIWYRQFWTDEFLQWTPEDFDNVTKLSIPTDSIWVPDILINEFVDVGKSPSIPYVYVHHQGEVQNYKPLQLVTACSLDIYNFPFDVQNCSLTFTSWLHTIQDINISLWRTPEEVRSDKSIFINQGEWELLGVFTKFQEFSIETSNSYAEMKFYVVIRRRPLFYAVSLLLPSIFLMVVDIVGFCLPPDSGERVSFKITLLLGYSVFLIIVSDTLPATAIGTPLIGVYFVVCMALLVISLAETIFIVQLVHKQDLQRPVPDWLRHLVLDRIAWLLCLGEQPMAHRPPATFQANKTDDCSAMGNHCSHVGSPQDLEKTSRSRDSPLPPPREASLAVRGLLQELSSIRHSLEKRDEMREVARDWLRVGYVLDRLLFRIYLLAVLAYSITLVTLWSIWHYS
Text: (1) Stimulation by 5-HT of 5HT3 receptors located in vagal afferent fibres produces a fall in heart rate and blood pressure in the anaesthetized rat (Bezold-Jarisch reflex).

[2] = test system: Cis-platinum induced emesis; assay: Cis-platinum induced emesis in the dog; assay type: in vivo
Text: (Gylys, J. A., Dora, K. M. & Buyniski J. P. Res. Comm. Chem. Pathol. Pharmacol. (1979)23: 61-68).

CuSO4-induced emesis = CuSO4-induced emesis in the dog; assay type: in vivo; conditions: for C4 SO4 - INDUCED VOMITING No EMETIC EPISODES IN THE DOG (% Inh.): 1 mg/kg i.v.
Text: (Kayashima, N., Tanaka, M., Iwasaki, M. & Hayama, T. Japan J. Pharmacol. (1978)28: 775-781).

gastric emptying = assay: Stomach emptying (gastric emptying of glass beads) in the rat; assay type: in vivo; parameters: unit not given here
Text: (5) Stomach emptying in the rat, administering compounds by oral route. (Jacoby, H. I., and Brodie, D. A. Gastroenterol. 52, 676-684, 1967).
All of them show a good prokinetic activity in the gastric emptying of glass beads in the rat.

[3] = test system: Apomorphine-induced emesis; assay: Apomorphine-induced emesis in the dog; conditions: for APOMORPHINE-INDUCED VOMITING IN THE DOG % Protected animals: 1 mg/kg i.v.

SMILES	ED50 [1]	CISPLATIN-INDUCED VOMITING IN THE DOG (% inhibition) ([2]; 0.03 mg/kg i.v.)	CISPLATIN-INDUCED VOMITING IN THE DOG (% inhibition) ([2]; 0.1 mg/kg p.o.)	C4 SO4 - INDUCED VOMITING No EMETIC EPISODES IN THE DOG (% Inh.) (CuSO4-induced emesis)	GASTRIC EMPTYING IN THE RAT [drawing 8] (gastric emptying; 0.01 mg/kg p.o.)	GASTRIC EMPTYING IN THE RAT [drawing 8] (gastric emptying; 1.0 mg/kg p.o.)	APOMORPHINE-INDUCED VOMITING IN THE DOG % Protected animals [3]	CISPLATIN-INDUCED VOMITING IN THE DOG (% inhibition) ([2]; 1 mg/kg i.v.)	CISPLATIN-INDUCED VOMITING IN THE DOG (% inhibition) ([2]; 3 mg/kg p.o.)	activity in CuSO4-induced vomiting in the dog (in words) (CuSO4-induced emesis)	antiemetic activity in apomorphine-induced vomiting in the dog (in words) [3]
CN1[C@@H]2CC[C@H]1C[C@H](NC(=O)c1cc(Cl)c(N)cc1OCC1CC1)C2 [Compound 16, N(8-methyl-8-azabicyclo[3.2.1]oct3β-yl)2-cyclopropylmethoxy-4-amino-5-chlorobenzamide]	2.6 µg/kg	53%	61%	45%	32	71	0%				
CCN(CC)CCNC(=O)c1cc(Cl)c(N)cc1OC [Metoclopramide, N-[2-(diethylamino)ethyl]-2-methoxy-4-amino-5-chlorobenzamide, reference compound]	330 µg/kg			60%	0	42	100%	69%	85%	decreases the number of emetic episodes	very active
Nc1cc(OCC2CC2)c(C(=O)NC2CN3CCC2CC3)cc1Cl (stereo not shown) [Compound 1, N-(1-azabicyclo[2.2.2]oct-3-yl)-2-cyclopropylmethoxy-4-amino-5-chlorobenzamide]	0.56 µg/kg	88%	85%	40%	55	85	0%				
COCCOc1cc(N)c(Cl)cc1C(=O)NC1CN2CCC1CC2 (stereo not shown) [Compound 11, N-(1-azabicyclo[2.2.2]oct-3-yl)-2-methoxyethoxy-4-amino-5-chlorobenzamide]	0.42 µg/kg	81%	0%	24%	60	68	0%				
COCCOc1cc(N)c(Cl)cc1C(=O)N[C@@H]1C[C@H]2CC[C@@H](C1)N2C [Compound 23, N-(8-methyl-8-azabicyclo[3.2.1]oct-3β-yl)-2-(2-methoxyethoxy)-4-amino-5-chlorobenzamide acid fumarate]	0.63 µg/kg	31%	53%	30%	13	61	0%				
COc1cc(N)c(Cl)cc1C(=O)NC1CN2CCC1CC2 (stereo not shown) [Zacopride, N-(1-azabicyclo[2.2.2]oct-3-yl)-2-methoxy-4-amino-5-chlorobenzamide, reference compound]	0.21 µg/kg	92%	88%	0%	51	77	0%			totally inactive	lack antiemetic activity
